According to US20030188756A1, “Treatment of inflammatory bowel disease with vitamin d compounds” (priority 2002, published 2003):

Key:
Type in all cases: in vivo
IL-10 KO mice [1] = assay: 1,25(OH)2D3 supplementation (0.005 μg/d, 4 weeks) of vitamin D deficient IL-10 KO mice, IBD symptoms
From the text: (§1) MICE. Age and sex matched C57BL/6 IL-10 KO, and wildtype (WT) mice were produced in the Pennsylvania State University breeding colony; the breeding pairs were obtained from Jackson Laboratory (Bar Harbor, Me.). The animal facilities at the Pennsylvania State University are specific pathogen free and therefore breeding IL-10 KO mice was successful. All of the procedures described were reviewed and approved by the Pennsylvania State University Institutional Animal Care and Use Committee on Jan. 25, 1999, IACUC# number: 98118-A0.
(§2) DIETS. From a single pool of breeding females fed commercial mouse diet (#5105 Ralston Purina Co.), females in the second week of gestation were selected and randomly distributed into two groups. Starting pregnant dams on vitamin D deficient diet ensured that by 5 weeks of age the weanlings were vitamin D deficient (Cantorna et al. 1996). All mice were fed synthetic diets made in the laboratory (Yang et al. 1993; modification of Smith et al. 1987). The mice were vitamin D deficient, vitamin D sufficient or 1,25-dihydroxycholecalciferol supplemented. Mice were housed under yellow light to prevent the synthesis of vitamin D in skin. All of the mice were vitamin D deficient until weaning.
(§3) The 3 week old vitamin D deficient mice were randomly assigned to various treatment groups as described below. […] Experimental diets were prepared fresh and replaced every 2-3 days during the experiment. To ensure that 1,25-dihydroxycholecalciferol (1,25(OH)2D3) treated mice ate all of the 1,25(OH)2D3 provided, food cups containing 8 g of diet were replaced every other day (completely eaten) for the duration of each experiment (Cantorna et al. 1996, Cantorna et al. 1998a). In order to monitor vitamin D toxicity, 1,25(OH)2D3 supplemented mice were observed daily for signs of hypercalcemia. Symptoms of hypercalcemia monitored daily included overall health and weight loss.
In the 2nd series of experiments 3 week old vitamin D deficient mice were split into 2 groups. One group of mice was maintained on the vitamin D deficient diet and the other group was supplemented with 0.005 μg/d 1,25(OH)2D3. The vitamin D deficient and 1,25(OH)2D3 supplemented mice were sacrificed 4 weeks later at […].
SERUM MEASUREMENTS. Mice were bled at 5 weeks of age and at the end of the experiments to measure hemoglobin, calcium, and red blood cell numbers. Serum was collected every 2 weeks and serum calcium measured (normal for mice is 2.00-2.75 mmol/L). Vitamin D deficiency was also monitored by serum calcium analysis (serum calcium less then 1.75 mmol/L). Calcium (587-A) and hemoglobin (525-A) colorometric kits were from Sigma Chemical Co. (St. Louis, Mo.). Red blood cells were counted using a hemocytometer.
(§4) IBD SEVERITY. Mortality associated with the development of diarrhea was recorded in IL-10 KO and WT mice. In addition the small intestines (SI) were removed and weighed. The jejunum of the […] KO mice is visibly inflamed and has been used by others to monitor symptoms of IBD in mice (Kuhns et al. 1993). The jejunum of the SI was saved in 100 g/L formalin in phosphate buffered saline solution and sent to the Penn State Diagnostic Laboratory for sectioning and staining with hematoxyalin and eosin. Four or more paraffin sections (4 microns) from each mouse were scored using the exact procedure described by Kuhns et. al (1993). The sections were scored blindly on a scale of 0 to 5 for inflammation. […]

WT mice = assay: 1,25(OH)2D3 supplementation (0.005 μg/d, 4 weeks) of vitamin D deficient WT mice; conditions: 0.005 μg/day 1,25(OH)2D3 for 4 weeks, mean ± SEM
From the text: as §1
DIETS. […]
(§5) The 3 week old vitamin D deficient mice were randomly assigned to various treatment groups as described below. […] Symptoms of hypercalcemia monitored daily included overall health and weight loss. […]
SERUM MEASUREMENTS. […] Serum was collected every 2 weeks and serum calcium measured (normal for mice is 2.00-2.75 mmol/L). Vitamin D deficiency was also monitored by serum calcium analysis (serum calcium less then 1.75 mmol/L). […] Red blood cells were counted using a hemocytometer.
(§6) IBD SEVERITY. Mortality associated with the development of diarrhea was recorded in IL-10 KO and WT mice. […] Four or more paraffin sections (4 microns) from each mouse were scored using the exact procedure described by Kuhns et. al (1993). The sections were scored blindly on a scale of 0 to 5 for inflammation. […]

IL-10 KO mice [2] = assay: Short term (2 weeks, 0.2 μg/d) 1,25(OH)2D3 treatment of IL-10 KO mice started at first IBD symptoms
From the text: as §1, §2, §3
In the 3rd experimental design 1,25(OH)2D3 treatment was started at the first signs of IBD symptoms (diarrhea, 7 weeks of age). Seven week old vitamin D deficient mice were split into 2 groups. One group was maintained vitamin D deficient and the other group was supplemented with 0.2 μg/d 1,25(OH)2D3. The mice were treated for 2 weeks and the 9 week old mice were sacrificed.
as §4, with “The jejunum of the SI was saved in 100 g/L formalin in phosphate buffered saline solution and sent to the Penn State Diagnostic Laboratory for sectioning and staining with hematoxyalin and eosin.” left out

IL-10 KO mice [3] = assay: Food restriction experiment, IL-10 KO mice on cholecalciferol diet (+D restricted); conditions: mean ± SEM
From the text: as §1, §2
as §3, with “In order to monitor vitamin D toxicity, 1,25(OH)2D3 supplemented mice were observed daily for signs of hypercalcemia.” left out, “loss. […]” for “loss.”
as §6

IL-10 KO mice [4] = assay: Mortality and growth of IL-10 KO mice fed cholecalciferol (vitamin D sufficient) from weaning
From the text: as §1
DIETS. From a single pool of breeding females fed commercial mouse diet (#5105 Ralston Purina Co.), females in the second week of gestation were selected and randomly distributed into two groups. Starting pregnant dams on vitamin D deficient diet ensured that by 5 weeks of age the weanlings were vitamin D deficient (Cantorna et al. 1996). […]
as §5, §6

[5] = 1,25(OH)2D3 supplemented IL-10 KO and WT mice, data not shown
[6] = 0.2 μg/d 1,25(OH)2D3 for 2 weeks from 7 weeks of age, mean ± SEM
[7] = treatment for as little as 2 weeks
[8] = 5.0 μg/d cholecalciferol for 4 weeks

Structure (SMILES) | Erythrocyte numbers (IL-10 KO mice [1]; [5]) | Hemoglobin levels (IL-10 KO mice [1]; [5]) | Weight (IL-10 KO mice [1]; IL-10 KO mice, 0.005 μg/day 1,25(OH)2D3 for 4 weeks, 9 weeks of age, mean ± SEM) | Serum Calcium (IL-10 KO mice [1]; IL-10 KO mice, 0.005 μg/day 1,25(OH)2D3 for 4 weeks, mean ± SEM) | Histology Score (IL-10 KO mice [1]; IL-10 KO mice, small intestine (jejunum) inflammation, scale 0 to 5, 0.005 μg/day for 4 weeks, mean ± SEM) | Serum Calcium (WT mice) | Small Intestine g (IL-10 KO mice [2]; [6]) | Small Intestine g/100 g body (IL-10 KO mice [2]; [6]) | IBD symptoms (IL-10 KO mice [2]; [7]) | Inflammation in the small intestine (IL-10 KO mice [2]; [7]) | Weight (IL-10 KO mice [3]; 5.0 μg/d cholecalciferol for 4 weeks from 5 weeks of age) | Small Intestine g (IL-10 KO mice [3]; [8]) | Small Intestine g/100 g body (IL-10 KO mice [3]; [8]) | Diarrhea and mortality (IL-10 KO mice [4]; 5.0 μg cholecalciferol/d from weaning (FIG. 1)) | Growth (body weight curve) (IL-10 KO mice [4]; 5.0 μg cholecalciferol/d from weaning, compared to vitamin D deficient IL-10 KO mice (FIG. 2))
C=C1/C(=C\C=C2/CCC[C@]3(C)[C@@H]([C@H](C)CCCC(C)(C)O)CC[C@@H]23)C[C@@H](O)C[C@@H]1O [1,25(OH)2D3, 1,25-dihydroxycholecalciferol] | normal and not different | normal and not different | 20.9 ± 0.8 g | 3.00 ± 0.30 mmol/L | 1.7 ± 0.4 | 2.72 ± 0.25 mmol/L | 1.08 ± 0.05 g | 5.4 ± 0.3 g/100 g body | ameliorated IBD symptoms | reduced the inflammation | – | – | – | – | –
C=C1CC[C@H](O)C/C1=C/C=C1\CCC[C@]2(C)[C@@H]([C@H](C)CCCC(C)C)CC[C@@H]12 [cholecalciferol] | – | – | – | – | – | – | – | – | – | – | 16.1 ± 1.1 g | 1.00 ± 0.02 g | 6.2 ± 0.3 g/100 g body | did not develop diarrhea or die | grew rapidly
